In one experiment the target is FXR (Homo sapiens (Human), UniProt Q96RI1). Description: transient human FXR/Gal4-luciferase reporter assay. The class given is cell-based.
Sequence of FXR (Q96RI1 262-486): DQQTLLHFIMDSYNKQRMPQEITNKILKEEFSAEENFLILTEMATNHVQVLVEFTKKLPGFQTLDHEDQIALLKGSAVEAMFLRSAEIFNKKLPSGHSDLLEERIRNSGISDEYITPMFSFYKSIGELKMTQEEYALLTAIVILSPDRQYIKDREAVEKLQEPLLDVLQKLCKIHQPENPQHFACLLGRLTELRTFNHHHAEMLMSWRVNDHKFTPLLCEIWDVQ
Details: not given
The essentials:
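HEK293 cells stably carrying a 5×Gal4 response element–firefly luciferase reporter were transiently transfected overnight with a Gal4 DBD–human FXR LBD fusion plasmid. Compound was added in DMSO and cells were incubated overnight at 37 °C, 5% CO2. Activity was read as Steady-Glo luminescence.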
(In general: In a reporter assay the amount or activity of a reporter protein is the signal.)
By EC50 is commonly meant the midpoint of the concentration-response curve. Take `Cc1nc2ccc(-c3cccc(N(CC45CCC(c6nc(C7CC7)no6)(CC4)OC5)C(=O)C4CCC(F)(F)C4)c3)cc2s1` (stereo not shown) [Example 567, N-((1-(3-cyclopropyl-1,2,4-oxadiazol-5-yl)-2-oxabicyclo[2.2.2]octan-4-yl)methyl)-3,3-difluoro-N-(3-(2-methylbenzo[d]thiazol-6-yl)phenyl)cyclopentane-1-carboxamide]: a half-maximal response (EC50) required 432 nM.
Compound `O=C(N(CC12CCC(c3noc(C4(C(F)(F)F)CC4)n3)(CC1)CC2)c1cccc(-c2cnc3nc(C4CC4)sc3c2)c1)C12CC(F)(C1)C2` [Example 526, N-(3-(2-cyclopropylthiazolo[4,5-b]pyridin-6-yl)phenyl)-3-fluoro-N-((4-(5-(1-(trifluoromethyl)cyclopropyl)-1,2,4-oxadiazol-3-yl)bicyclo[2.2.2]octan-1-yl)methyl) bicyclo[1.1.1]pentane-1-carboxamide] showed an EC50 of 497 nM.
Compound `CCOc1ncc(-c2cccc(N(CC34CCC(c5noc(C(C)(C)C)n5)(CC3)CC4)C(=O)[C@H]3C[C@@H](OC)C3)c2)cn1` [Example 511, (1S,3S)—N-((4-(5-(tert-butyl)-1,2,4-oxadiazol-3-yl)bicyclo[2.2.2]octan-1-yl)methyl)-N-(3-(2-ethoxypyrimidin-5-yl)phenyl)-3-methoxycyclobutane-1-carboxamide] displayed a 50% effective concentration (EC50) of 411 nM.
Still for that read-out and setting: then `Cc1nc2ccc(-c3cccc(N(CC45CCC(c6nnc(C7CC7)o6)(CC4)CC5)C(=O)C4CCC(F)(F)C4)c3)cc2s1` (stereo not shown) [Example 563, N-((4-(5-cyclopropyl-1,3,4-oxadiazol-2-yl)bicyclo[2.2.2]octan-1-yl)methyl)-3,3-difluoro-N-(3-(2-methylbenzo[d]thiazol-6-yl)phenyl)cyclopentane-1-carboxamide], with 154 nM; and `CS(=O)(=O)Nc1ccc(-c2cccc(N(CC34CCC(c5noc(C(F)F)n5)(CC3)CC4)C(=O)C34CC(F)(C3)C4)c2)cc1` [Example 460, N-((4-(5-(difluoromethyl)-1,2,4-oxadiazol-3-yl)bicyclo[2.2.2]octan-1-yl)methyl)-3-fluoro-N-(4′-(methylsulfonamido)-[1,1′-biphenyl]-3-yl)bicyclo[1.1.1]pentane-1-carboxamide], with 338 nM; and `CC(C)(C)c1nc(C23CCC(CN(C(=O)C45CC(F)(C4)C5)c4cc(-c5cnc6nc(C7CC7)sc6c5)ccn4)(CC2)CC3)no1` [Example 535, N-((4-(5-(tert-butyl)-1,2,4-oxadiazol-3-yl)bicyclo[2.2.2]octan-1-yl)methyl)-N-(4-(2-cyclopropylthiazolo[4,5-b]pyridin-6-yl)pyridin-2-yl)-3-fluorobicyclo[1.1.1]pentane-1-carboxamide], with 202 nM.
`O=C(N(CC12CCC(c3noc(C(F)F)n3)(CC1)CC2)c1cccc(-c2cnc(C3CC3)nc2)c1)C12CC(F)(C1)C2` [Example 463, N-(3-(2-cyclopropylpyrimidin-5-yl)phenyl)-N-((4-(5-(difluoromethyl)-1,2,4-oxadiazol-3-yl)bicyclo[2.2.2]octan-1-yl)methyl)-3-fluorobicyclo[1.1.1]pentane-1-carboxamide] came in with a 50% effective concentration (EC50) of 215 nM.

The experiment is the same for the next values; noted with them: Gal4-hFXR fusion construct, HEK293 reporter cells; response relative to 8 μM GW-4064.
Turning to `CC(C)(O)c1ccc(-c2cccc(N(C[C@]34CC[C@](c5noc(C(C)(C)F)n5)(CC3)CC4)C(=O)C3CC(O)(C(F)(F)F)C3)c2)cc1` (stereo partly drawn) [Example 576, (cis)-N-((4-(5-(2-fluoropropan-2-yl)-1,2,4-oxadiazol-3-yl)bicyclo[2.2.2]octan-1-yl)methyl)-3-hydroxy-N-(4′-(2-hydroxypropan-2-yl)-[1,1′-biphenyl]-3-yl)-3-(trifluoromethyl)cyclobutane-1-carboxamide], the EC50 is 19 nM.
The compound `CC(C)(O)CN1CC=C(c2cccc(N(CC34CCC(c5noc(C(C)(C)F)n5)(CC3)CC4)C(=O)C34CC(F)(C3)C4)c2)CC1` [Example 663, 3-fluoro-N-((4-(5-(2-fluoropropan-2-yl)-1,2,4-oxadiazol-3-yl)bicyclo[2.2.2]octan-1-yl)methyl)-N-(3-(1-(2-hydroxy-2-methylpropyl)-1,2,3,6-tetrahydropyridin-4-yl)phenyl) bicyclo[1.1.1]pentane-1-carboxamide] came in with a concentration for a half-maximal effect (EC50) of 159 nM.
The same measure, in the same setting: then `N#CC1(c2ccc(-c3cccc(N(CC45CCC(c6noc(C7(F)CC7)n6)(CC4)CC5)C(=O)[C@H]4C[C@](O)(C(F)(F)F)C4)c3)cc2F)CC1` [Example 578, (cis)-N-(4′-(1-cyanocyclopropyl)-3′-fluoro-[1,1′-biphenyl]-3-yl)-N-((4-(5-(1-fluorocyclopropyl)-1,2,4-oxadiazol-3-yl)bicyclo[2.2.2]octan-1-yl)methyl)-3-hydroxy-3-(trifluoromethyl)cyclobutane-1-carboxamide], with 92 nM.
Still for that read-out and setting: under `O=C(N(CC12CCC(c3noc(C(F)(F)F)n3)(CC1)CC2)c1cccc(-c2cnc(C3CC3)nc2)c1)C12CC(F)(C1)C2` [Example 580, N-(3-(2-cyclopropylpyrimidin-5-yl)phenyl)-3-fluoro-N-((4-(5-(trifluoromethyl)-1,2,4-oxadiazol-3-yl)bicyclo[2.2.2]octan-1-yl)methyl)bicyclo[1.1.1]pentane-1-carboxamide] stands 160 nM; under `O=C(N(CC12CCC(c3nc(C4CC4)no3)(CC1)CC2)c1cncc(-c2cnc(C(F)(F)F)nc2)c1)C12CC(F)(C1)C2` [Example 428, N-((4-(3-cyclopropyl-1,2,4-oxadiazol-5-yl)bicyclo[2.2.2]octan-1-yl)methyl)-3-fluoro-N-(5-(2-(trifluoromethyl)pyrimidin-5-yl)pyridin-3-yl)bicyclo[1.1.1]pentane-1-carboxamide], 3550 nM; under `Cc1cc(-c2cccc(N(CC34CCC(c5nc(C6CC6)no5)(CC3)CC4)C(=O)C34CC(F)(C3)C4)c2)cnc1F` [Example 247, N-((4-(3-cyclopropyl-1,2,4-oxadiazol-5-yl)bicyclo[2.2.2]octan-1-yl)methyl)-3-fluoro-N-(3-(6-fluoro-5-methylpyridin-3-yl)phenyl)bicyclo[1.1.1]pentane-1-carboxamide], 341 nM.
Consider `COc1ncc(-c2cccc(N(CC34CCC(c5nnc(C6CC6)o5)(CC3)CC4)C(=O)C34CC(F)(C3)C4)c2)cn1` [Example 341, N-((4-(5-cyclopropyl-1,3,4-oxadiazol-2-yl)bicyclo[2.2.2]octan-1-yl)methyl)-3-fluoro-N-(3-(2-methoxypyrimidin-5-yl)phenyl)bicyclo[1.1.1]pentane-1-carboxamide], for which the concentration for a half-maximal effect (EC50) is 287 nM.
On the same count and under the same terms, under `CCOc1cnc(-c2cccc(N(CC34CCC(c5nc(C(C)(C)C)no5)(CC3)CC4)C(=O)C34CC(F)(C3)C4)c2)nc1` [Example 370, N-((4-(3-(tert-butyl)-1,2,4-oxadiazol-5-yl)bicyclo[2.2.2]octan-1-yl)methyl)-N-(3-(5-ethoxypyrimidin-2-yl)phenyl)-3-fluorobicyclo[1.1.1]pentane-1-carboxamide] stands 121 nM; under `Cc1nc2ccc(-c3cccc(N(CC45CCC(c6nc(C(C)C)no6)(CC4)CC5)C(=O)C45CC(F)(C4)C5)c3)cc2s1` [Example 378, 3-fluoro-N-((4-(3-isopropyl-1,2,4-oxadiazol-5-yl)bicyclo[2.2.2]octan-1-yl)methyl)-N-(3-(2-methylbenzo[d]thiazol-6-yl)phenyl)bicyclo[1.1.1]pentane-1-carboxamide], 53 nM.
The same measure, in the same setting: under `CC(C)(O)c1ccc(-c2ccnc(N(CC34CCC(c5ccc(C(C)(F)F)cn5)(CC3)CC4)C(=O)OC(C)(C)C(F)(F)F)c2)nc1` [Example 607, 1,1,1-trifluoro-2-methylpropan-2-yl ((4-(5-(1,1-difluoroethyl)pyridin-2-yl)bicyclo[2.2.2]octan-1-yl)methyl)(5-(2-hydroxypropan-2-yl)-[2,4′-bipyridin]-2′-yl)carbamate] stands 96 nM; under `N#Cc1ccc(-c2cccc(N(CC34CCC(c5nc(C6CC6)no5)(CC3)CC4)C(=O)C34CC(F)(C3)C4)c2)cc1` [Example 302, N-(4′-cyano-[1,1′-biphenyl]-3-yl)-N-((4-(3-cyclopropyl-1,2,4-oxadiazol-5-yl)bicyclo[2.2.2]octan-1-yl)methyl)-3-fluorobicyclo[1.1.1]pentane-1-carboxamide], 861 nM; under `O=C(N(CC12CCC(c3nc(C4CC4)no3)(CC1)CC2)c1cccc(-c2cc(F)c3nccn3c2)c1)C12CC(F)(C1)C2` [Example 317, N-((4-(3-cyclopropyl-1,2,4-oxadiazol-5-yl)bicyclo[2.2.2]octan-1-yl)methyl)-3-fluoro-N-(3-(8-fluoroimidazo[1,2-a]pyridin-6-yl)phenyl)bicyclo[1.1.1]pentane-1-carboxamide], 887 nM.
`O=C(N(CC12CCC(c3nc(C4CC4)no3)(CC1)CC2)c1cccc(-c2ccc3[nH]c(=O)oc3c2)c1)C12CC(F)(C1)C2` [Example 261, N-((4-(3-cyclopropyl-1,2,4-oxadiazol-5-yl)bicyclo[2.2.2]octan-1-yl)methyl)-3-fluoro-N-(3-(2-oxo-2,3-dihydrobenzo[d]oxazol-6-yl)phenyl)bicyclo[1.1.1]pentane-1-carboxamide]: the EC50 worked out at 48 nM.
The same measure, in the same setting: then `CCOc1ncc(-c2cccc(N(CC34CCC(c5cc(C6CC6)nn5C)(CC3)CC4)C(=O)C34CC(F)(C3)C4)c2)cn1` [Example 413, N-((4-(3-cyclopropyl-1-methyl-1H-pyrazol-5-yl)bicyclo[2.2.2]octan-1-yl)methyl)-N-(3-(2-ethoxypyrimidin-5-yl)phenyl)-3-fluorobicyclo[1.1.1]pentane-1-carboxamide], with 192 nM; and `Cc1cnn2c(-c3cccc(N(CC45CCC(c6nc(C7CC7)no6)(CC4)CC5)C(=O)C45CC(F)(C4)C5)c3)cnc2c1` [Example 319, N-((4-(3-cyclopropyl-1,2,4-oxadiazol-5-yl)bicyclo[2.2.2]octan-1-yl)methyl)-3-fluoro-N-(3-(7-methylimidazo[1,2-b]pyridazin-3-yl)phenyl)bicyclo[1.1.1]pentane-1-carboxamide], with 161 nM.

These data come from patent US11254663B2 (BRISTOL-MYERS SQUIBB COMPANY, priority 2019, dated 2022).
